In patent US20240174611A1 (Rappta Therapeutics Oy, priority 2021, published 2024):

System: LNCaP cells
Experiment: LNCaP cell viability assay (MTS)
Assay type: cell-based
Details: LNCaP cell line, 48 hours treatment
Procedure: LNCaP cell line was used for the cell viability assay. LNCaP cells were plated in 96-well plates at a density of 5000 cells per well. After 24 hours of plating, the cells were treated with increasing doses of compound 1-100 ranging from 1 μM to 80 μM. Relative cell numbers were analyzed after 48 hours using 3-(4,5-dimethylthiazol-2-yl)-5-(3-carboxymethoxyphenyl)-2-(4-sulfophenyl)-2H-tetrazolium (MTS) assay (Promega) according to the manufacturer's instructions.
The cell viability data was analyzed with GraphPad Prism software. The values were log transformed and analyzed with non-linear regression (curve-fit) using log(inhibitor) vs. response—variable slope (four parameters) and constraining the bottom to equal zero. Unless otherwise indicated, the GI50 values provided in Table 35 correspond to the LNCaP cell viability assays.

Molecule O=S(=O)(NC1CCCN(c2ccc(Cl)c(Cl)c2)C1)c1ccc(OC(F)(F)F)cc1 (stereo not drawn) [Compound 5, N-(1-(3,4-dichlorophenyl)piperidin-3-yl)-4-(trifluoromethoxy)benzene-sulfonamide] has a GI50 (Homo sapiens, LNCaP, 48 h) of 52.8 µM.
For CS(=O)(=O)N1CCC(NS(=O)(=O)c2ccc(OC(F)(F)F)cc2)(c2ccc(Cl)cc2)C1 (stereo not drawn) [Compound 72, N-(3-(4-chlorophenyl)-1-(methylsulfonyl)pyrrolidin-3-yl)-4-(trifluoromethoxy)benzenesulfonamide], the GI50 (Homo sapiens, LNCaP, 48 h) was 50.4 µM.
O=S(=O)(NC1(c2ccccc2)CCCNC1)c1ccc(OC(F)(F)F)cc1 (stereo not drawn) [Compound 90, N-(3-phenylpiperidin-3-yl)-4-(trifluoromethoxy)benzenesulfonamide] gave a GI50 (Homo sapiens, LNCaP, 48 h) of 48.9 µM.
For O=S(=O)(NC1CCCC1c1ccc(Cl)c(Cl)c1)c1ccc(OC(F)(F)F)cc1 (single isomer, unassigned) [Compound 44, N-(2-(3,4-dichlorophenyl)cyclopentyl)-4-(trifluoromethoxy)benzenesulfonamide], the GI50 was 45.4 µM.
For COc1ccc(C2(NS(=O)(=O)c3ccc(OC(F)(F)F)cc3)CCOCC2)cc1F [Compound 29, N-(4-(3-fluoro-4-methoxyphenyl)tetrahydro-2H-pyran-4-yl)-4-(trifluoromethoxy)benzene-sulfonamide], the GI50 (Homo sapiens, LNCaP, 48 h) was 39 µM.
With CN1CCC(NS(=O)(=O)c2ccc(OC(F)(F)F)cc2)(c2ccc(Cl)cc2)C1 (stereo not drawn) [Compound 69, N-(3-(4-chlorophenyl)-1-methylpyrrolidin-3-yl)-4-(trifluoromethoxy)benzenesulfonamide] the GI50 (Homo sapiens, LNCaP, 48 h) was 19.5 µM.
Work on O=S(=O)(NC1CCCCC1Oc1ccc(F)cc1)c1ccc(OC(F)(F)F)cc1 (stereo not drawn) [Compound 7, N-(2-(4-fluorophenoxy)cyclohexyl)-4-(trifluoromethoxy)benzene-sulfonamide] yielded a GI50 (Homo sapiens, LNCaP, 48 h) of 65.9 µM.
NS(=O)(=NC1(c2ccc(Cl)cc2)CCNCC1)c1ccc(OC(F)(F)F)cc1 (stereo not drawn) [Compound 96, N′-(4-(4-chlorophenyl)piperidin-4-yl)-4-(trifluoromethoxy)benzenesulfonimidamide] gave a GI50 (Homo sapiens, LNCaP, 48 h) of 13.7 µM.
COC(=O)C12CC3(C)CC(C)(CC(NS(=O)(=O)c4ccc(OC(F)(F)F)cc4)(C3)C1)C2 [Compound 21] showed a GI50 (Homo sapiens, LNCaP, 48 h) of 30 µM.
With O=S(=O)(NC1Cc2[nH]ncc2C(C(F)(F)F)C1)c1ccc(OC(F)(F)F)cc1 (stereo not drawn) [Compound 26] the GI50 (Homo sapiens, LNCaP, 48 h) was 53 µM.
O=C1CCC(NS(=O)(=O)c2ccc(OC(F)(F)F)cc2)c2ccc(OC(F)F)cc21 (stereo not drawn) [Compound 25, N-(6-(difluoromethoxy)-4-oxo-1,2,3,4-tetrahydronaphthalen-1-yl)-4-(trifluoromethoxy)benzene-sulfonamide] gave a GI50 (Homo sapiens, LNCaP, 48 h) of 30 µM.
Molecule CC(C)(C)OC(=O)N1CCC([C@@H]2C[C@H]2NS(=O)(=O)c2ccc(OC(F)(F)F)cc2)CC1 (racemic) [Compound 24] has a GI50 (Homo sapiens, LNCaP, 48 h) of 16 µM.
Work on O=S(=O)(NC1(c2ccc(Cl)cc2)CCNCC1)C12CC(C(F)(F)F)(C1)C2 [Compound 98, N-(4-(4-chlorophenyl)piperidin-4-yl)-3-(trifluoromethyl)bicyclo[1.1.1]pentane-1-sulfonamide] yielded a GI50 (Homo sapiens, LNCaP, 48 h) of 46.6 µM.
Work on O=S(=O)(NC1(c2ccc(F)cc2)CCNCC1)c1ccc(OC(F)(F)F)cc1 [Compound 59, N-(4-(4-fluorophenyl)piperidin-4-yl)-4-(trifluoromethoxy)benzenesulfonamide] yielded a GI50 (Homo sapiens, LNCaP, 48 h) of 18.1 µM.
Molecule O=S(=O)(NC1(C23CC(C2)C3)CCNCC1)c1ccc(OC(F)(F)F)cc1 [Compound 66, N-(4-(bicyclo[1.1.1]pentan-1-yl)piperidin-4-yl)-4-(trifluoromethoxy)benzenesulfonamide] has a GI50 (Homo sapiens, LNCaP, 48 h) of 68.6 µM.
O=S(=O)(NC1(c2ccc(Cl)c(F)c2)CNC1)c1ccc(OC(F)(F)F)cc1 [Compound 58, N-(3-(4-chloro-3-fluorophenyl)azetidin-3-yl)-4-(trifluoromethoxy)benzenesulfonamide] was tested, and the GI50 (Homo sapiens, LNCaP, 48 h) was 23.2 µM.
Work on O=S(=O)(NC1(c2ccccc2)CCNCC1)c1ccc(OC(F)(F)F)cc1 [Compound 50, N-(4-phenylpiperidin-4-yl)-4-(trifluoromethoxy)benzenesulfonamide] yielded a GI50 (Homo sapiens, LNCaP, 48 h) of 23.3 µM.
With O=S(=O)(NC1CC2(CCCC2)Oc2ccccc21)c1ccc(OC(F)(F)F)cc1 (stereo not drawn) [Compound 18, N-(spiro[chromane-2,1′-cyclopentan]-4-yl)-4-(trifluoromethoxy)benzene-sulfonamide] the GI50 (Homo sapiens, LNCaP, 48 h) was 37.4 µM.
O=S(=O)(NC1(c2ccccc2)CNC1)c1ccc(OC(F)(F)F)cc1 [Compound 46, N-(3-phenylazetidin-3-yl)-4-(trifluoromethoxy)benzenesulfonamide] gave a GI50 (Homo sapiens, LNCaP, 48 h) of at least 80 µM.
In the case of O=S(=O)(NC1CCN(c2cccc(Br)c2)C1)c1ccc(OC(F)(F)F)cc1 (stereo not drawn) [Compound 3], the GI50 (Homo sapiens, LNCaP, 48 h) was 77.1 µM.
Work on O=S(=O)(NC1(c2ccc(Cl)c(Cl)c2)CNC1)c1ccc(OC(F)(F)F)cc1 [Compound 48, N-(3-(3,4-dichlorophenyl)azetidin-3-yl)-4-(trifluoromethoxy)benzenesulfonamide] yielded a GI50 (Homo sapiens, LNCaP, 48 h) of 18.2 µM.
For CC(C)Oc1ccc(S(=O)(=O)NC2(c3ccc(F)cc3)CCNCC2)cc1 [Compound 75, N-(4-(4-fluorophenyl)piperidin-4-yl)-4-isopropoxybenzenesulfonamide], the GI50 (Homo sapiens, LNCaP, 48 h) was 30.7 µM.
COc1cccc(C2(NS(=O)(=O)c3ccc(OC(F)(F)F)cc3)CCCC2)c1 [Compound 15] gave a GI50 (Homo sapiens, LNCaP, 48 h) of 49.2 µM.
Work on O=S(=O)(NC1CCC2CN(Cc3ccccc3)CC21)c1ccc(OC(F)(F)F)cc1 (stereo not drawn) [Compound 22] yielded a GI50 (Homo sapiens, LNCaP, 48 h) of 70 µM.
With CC(C)(C)OC(=O)N1CCCC1C1(NS(=O)(=O)c2ccc(OC(F)(F)F)cc2)CC1 (stereo not drawn) [Compound 23] the GI50 (Homo sapiens, LNCaP, 48 h) was 26 µM.
O=S(=O)(N[C@@]1(c2ccc(Cl)cc2)CNC[C@@H]1F)c1ccc(OC(F)(F)F)cc1 (racemic) [Compound 79, N-((3S,4S)-3-(4-chlorophenyl)-4-fluoropyrrolidin-3-yl)-4-(trifluoromethoxy)benzenesulfonamide] showed a GI50 (Homo sapiens, LNCaP, 48 h) of 55.8 µM.
With CC(=O)Nc1ccc(S(=O)(=O)N2CCC(NS(=O)(=O)c3ccc(OC(F)(F)F)cc3)CC2)cc1 [Compound 1] the GI50 (Homo sapiens, LNCaP, 48 h) was 38.1 µM.
O=S(=O)(NC1(c2ccc(Cl)cc2F)CCNCC1)c1ccc(OC(F)(F)F)cc1 [Compound 94, N-(4-(4-chloro-2-fluorophenyl)piperidin-4-yl)-4-(trifluoromethoxy)benzenesulfonamide] gave a GI50 (Homo sapiens, LNCaP, 48 h) of 15.8 µM.
Molecule O=S(=O)(NC1(c2cc(F)ccc2F)CCNCC1)c1ccc(OC(F)(F)F)cc1 [Compound 88, N-(4-(2,5-difluorophenyl)piperidin-4-yl)-4-(trifluoromethoxy)benzenesulfonamide] has a GI50 (Homo sapiens, LNCaP, 48 h) of 36.5 µM.
With COc1ccc(Cl)cc1N1CCC(NS(=O)(=O)c2ccc(OC(F)(F)F)cc2)C1 (stereo not drawn) [Compound 2, N-(1-(5-chloro-2-methoxyphenyl)pyrrolidin-3-yl)-4-(trifluoromethoxy)benzene-sulfonamide] the GI50 (Homo sapiens, LNCaP, 48 h) was 67.4 µM.
Work on CC(C)CC(=O)N1CCC(NS(=O)(=O)c2ccc(OC(F)(F)F)cc2)(c2ccc(Cl)cc2)C1 (stereo not drawn) [Compound 81, N-(3-(4-chlorophenyl)-1-(3-methylbutanoyl)pyrrolidin-3-yl)-4-(trifluoromethoxy)benzenesulfonamide] yielded a GI50 (Homo sapiens, LNCaP, 48 h) of 45.8 µM.
CC(C)Oc1ccc(S(=O)(=O)NC2(c3ccc(Cl)cc3)CCNC2)cn1 (stereo not drawn) [Compound 80, N-(3-(4-chlorophenyl)pyrrolidin-3-yl)-6-isopropoxypyridine-3-sulfonamide] gave a GI50 (Homo sapiens, LNCaP, 48 h) of 50 µM.
In the case of O=S(=O)(NC1(c2ccc(Cl)c(Cl)c2)CCNC1)c1ccc(OC(F)(F)F)cc1 (stereo not drawn) [Compound 41, N-(3-(3,4-dichlorophenyl)pyrrolidin-3-yl)-4-(trifluoromethoxy)benzene-sulfonamide], the GI50 (Homo sapiens, LNCaP, 48 h) was 10.4 µM.
In the case of O=S(=O)(NC1(c2ccc(Cl)c(F)c2)CCNCC1)c1ccc(OC(F)(F)F)cc1 [Compound 56, N-(4-(4-chloro-3-fluorophenyl)piperidin-4-yl)-4-(trifluoromethoxy)benzenesulfonamide], the GI50 (Homo sapiens, LNCaP, 48 h) was 11 µM.
With O=S(=O)(NC1(c2ccc(F)c(F)c2)CCNCC1)c1ccc(OC(F)(F)F)cc1 [Compound 82, N-(4-(3,4-difluorophenyl)piperidin-4-yl)-4-(trifluoromethoxy)benzenesulfonamide] the GI50 (Homo sapiens, LNCaP, 48 h) was 14.4 µM.
Molecule O=S(=O)(N[C@@H]1C[C@H]1c1ccc(Cl)cc1)c1ccc(OC(F)(F)F)cc1 (racemic) [Compound 42, rac N-((1R,2S)-2-(4-chlorophenyl)cyclopropyl)-4-(trifluoromethoxy)benzenesulfonamide] has a GI50 (Homo sapiens, LNCaP, 48 h) of 67.2 µM.
CC(C)(C)OC(=O)N1CCC(CF)(NS(=O)(=O)c2ccc(OC(F)(F)F)cc2)C1 (stereo not drawn) [Compound 32] gave a GI50 (Homo sapiens, LNCaP, 48 h) of 30 µM.
CC(C)(C)N1CCC(NS(=O)(=O)c2ccc(OC(F)(F)F)cc2)C1c1ccc(Cl)c(F)c1 (single isomer, unassigned; enantiomer 1) [Compound 37, trans N-(1-(tert-butyl)-2-(4-chloro-3-fluorophenyl)pyrrolidin-3-yl)-4-(trifluoromethoxy)benzene-sulfonamide enantiomer 1] was tested, and the GI50 (Homo sapiens, LNCaP, 48 h) was 16 µM.
O=C(OCc1ccccc1)N1CCC(NS(=O)(=O)c2ccc(OC(F)(F)F)cc2)(c2ccc(Cl)c(Cl)c2)C1 (stereo not drawn) [Compound 40] was tested, and the GI50 (Homo sapiens, LNCaP, 48 h) was 25.5 µM.
Work on O=S(=O)(NC1(c2ccc(C(F)F)cc2)CCNCC1)c1ccc(OC(F)(F)F)cc1 [Compound 100, N-(4-(4-(difluoromethyl)phenyl)piperidin-4-yl)-4-(trifluoromethoxy)benzenesulfonamide] yielded a GI50 (Homo sapiens, LNCaP, 48 h) of 22.3 µM.
Work on O=S(=O)(NC1CCCc2cc(Cl)ccc21)c1ccc(OC(F)(F)F)cc1 (stereo not drawn) [Compound 12, N-(6-chloro-1,2,3,4-tetrahydronaphthalen-1-yl)-4-(trifluoromethoxy)benzene-sulfonamide] yielded a GI50 (Homo sapiens, LNCaP, 48 h) of 49 µM.
Work on CC1CC(NS(=O)(=O)c2ccc(OC(F)(F)F)cc2)CCC1(C)C (stereo not drawn) [Compound 8, 4-(trifluoromethoxy)-N-(3,4,4-trimethylcyclohexyl)benzene-sulfonamide] yielded a GI50 (Homo sapiens, LNCaP, 48 h) of 73.3 µM.
